US9181253B2 (The United States of America, as represented by the …, priority 2008, dated 2015)

Tests used:
hA1AR [1] = target: T1, hA1AR (Homo sapiens (Human), UniProt P30542); assay: A1AR functional assay, inhibition of forskolin-stimulated cyclic AMP production in AR-transfected CHO cells; assay type: cell-based; settings: for inhibition at 10 µM: CHO, read-out: % Inhibition, cyclic AMP A1; for % Inhibition, cyclic AMP A1: maximal efficacy at 10 μM, in comparison to effect (100%) of full agonist CPA at 10 μM, n = 3-5
T1 sequence (P30542 whole entry): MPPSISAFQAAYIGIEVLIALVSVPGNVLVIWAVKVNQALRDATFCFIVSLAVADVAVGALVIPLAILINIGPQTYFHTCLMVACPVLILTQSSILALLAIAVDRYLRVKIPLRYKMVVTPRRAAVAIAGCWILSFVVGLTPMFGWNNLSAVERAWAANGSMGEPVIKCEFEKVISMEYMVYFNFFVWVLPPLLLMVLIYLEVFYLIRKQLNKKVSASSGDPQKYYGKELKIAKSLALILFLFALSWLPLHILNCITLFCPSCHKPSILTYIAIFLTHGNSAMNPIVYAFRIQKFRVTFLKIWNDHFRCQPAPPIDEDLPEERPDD
Method: CHO cells that expressed the recombinant human or rat A3AR or the human A1 or A2BAR were harvested by trypsinization. After centrifugation and resuspended in medium, cells were planted in 24-well plates in 1.0 mL medium. […] The reaction was terminated by removing the supernatant, and cells were lysed upon the addition of 200 μL of 0.1 M ice-cold HCl. The cell lysate was resuspended and stored at −20° C. For determination of cyclic AMP production, protein kinase A (PKA) was incubated with [^3H]cyclic AMP (2 nM) in K2HPO4/EDTA buffer (K2HPO4, 150 mM; EDTA, 10 mM), 20 μL of the cell lysate, and 30 μL 0.1 M HCl or 50 μL of cyclic AMP solution (0-16 pmol/200 μL for standard curve). Bound radioactivity was separated by rapid filtration through Whatman GF/C filters and washed once with cold buffer. Bound radioactivity was measured by liquid scintillation spectrometry.
Intracellular cAMP levels were measured with a competitive protein binding method.

hA1AR [2] = target: T1, hA1AR; assay: Radioligand membrane binding at hA1AR (Example 6); settings: for Ki: CHO cells expressing hA1AR, [3H]R-PIA, n = 3-5, read-out: Affinity Ki, nM A1; for inhibition at 10 µM: read-out: (% inhibition) A1; for (% inhibition) A1: percent inhibition of radioligand binding at 10 μM
Method: (§1) In addition, 800 μg/mL Geneticin and 500 μg/mL hygromycin were added to the A2A media and to the A1 and A3 media, respectively. […] The concentration of protein was determined using a BCA Protein Assay Kit from Pierce Biotechnology (Rockford, Ill.).
(§2) Radioligand binding assays at A1, A2A, and A3ARs were performed according to the procedures described previously.
(§3) All of the filters were washed 3 times with Tris-HCl, pH 7.5. […] Filters for A3AR binding were counted using a PerkinElmer Cobra II γ-counter.
(§4) Binding and functional parameters were calculated using Prism 5.0 software (GraphPAD, San Diego, Calif., USA). IC50 values obtained from competition curves were converted to Ki values using the Cheng-Prusoff equation. Data were expressed as mean±standard error.

hA3AR = hA3AR (Homo sapiens (Human), UniProt P0DMS8); assay: Radioligand membrane binding at hA3AR (Example 6); settings: for Ki: CHO cells expressing hA3AR, [125I]I-AB-MECA, n = 3-5, read-out: Affinity Ki, nM A3
hA3AR, sequence (P0DMS8 whole entry): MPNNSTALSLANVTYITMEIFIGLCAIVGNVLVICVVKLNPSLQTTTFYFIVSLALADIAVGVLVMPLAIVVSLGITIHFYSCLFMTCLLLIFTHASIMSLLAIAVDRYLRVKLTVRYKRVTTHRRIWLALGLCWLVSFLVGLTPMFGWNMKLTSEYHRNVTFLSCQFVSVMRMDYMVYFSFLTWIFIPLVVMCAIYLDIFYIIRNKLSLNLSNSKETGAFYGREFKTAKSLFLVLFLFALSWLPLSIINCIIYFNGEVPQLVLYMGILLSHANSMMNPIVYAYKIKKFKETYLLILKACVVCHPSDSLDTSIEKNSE
Method: Chinese hamster ovary (CHO) cells stably expressing either the recombinant hA1 or hA3AR and human embryonic kidney (HEK) 293 cells stably expressing the human (h) A2AAR were cultured in DMEM and F12 (1:1), supplemented with 10% fetal bovine serum, 100 units/mL penicillin, 100 μg/mL streptomycin, and 2 μmol/mL glutamine. In addition, 800 μg/mL Geneticin and 500 μg/mL hygromycin were added to the A2A media and to the A1 and A3 media, respectively. […] The concentration of protein was determined using a BCA Protein Assay Kit from Pierce Biotechnology (Rockford, Ill.).
The mixtures were incubated at 25° C. for 60 min. Binding reactions were terminated by filtration through Whatman GF/B filters under a reduced pressure using a MT-24 cell harvester (Brandell, Gaithersburg, Md.). Filters were washed three times with 5 ml of 50 mM ice-cold Tris-HCl buffer (pH 7.5). […] All of the filters were washed 3 times with Tris-HCl, pH 7.5. […] Filters for A3AR binding were counted using a PerkinElmer Cobra II γ-counter.

hA2AAR = hA2AAR (Homo sapiens (Human), UniProt P29274); assay: Radioligand membrane binding at hA2AAR (Example 6); settings: for Ki: HEK293 cells expressing hA2AAR, [3H]CGS21680, n = 3-5, read-out: Affinity Ki, nM A2A; for (% inhibition) A2A: percent inhibition of radioligand binding at 10 μM; for inhibition at 10 µM: read-out: (% inhibition) A2A
hA2AAR, sequence (P29274 whole entry): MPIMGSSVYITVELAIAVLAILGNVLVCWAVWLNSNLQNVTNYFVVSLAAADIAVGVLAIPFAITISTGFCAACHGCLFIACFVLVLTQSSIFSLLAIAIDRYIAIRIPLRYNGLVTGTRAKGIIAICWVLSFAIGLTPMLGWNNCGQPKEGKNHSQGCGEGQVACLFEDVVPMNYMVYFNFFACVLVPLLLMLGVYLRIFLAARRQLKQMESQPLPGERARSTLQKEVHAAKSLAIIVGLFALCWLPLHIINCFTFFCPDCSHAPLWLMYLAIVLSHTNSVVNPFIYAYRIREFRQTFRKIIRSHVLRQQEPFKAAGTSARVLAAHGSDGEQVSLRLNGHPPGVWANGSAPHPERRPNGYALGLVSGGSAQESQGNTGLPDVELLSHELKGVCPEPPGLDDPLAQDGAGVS
Method: as §1, §2, §3, §4

Nc1nc(Cl)nc2c1ncn2[C@H]1[C@H](O)[C@H](O)[C@@H]2C[C@@H]21 [Compound 107, (1R,2R,3S,4R,5S)-4-(6-Amino-2-chloro-9H-purin-9-yl)-bicyclo[3.1.0]hexane-2,3-diol]
inhibition at 10 µM (hA1AR [1]): 68.1 ± 4.4% | Ki (hA1AR [2]): 350 ± 90 nM | Ki (hA3AR): 160 ± 42 nM | Ki (hA2AAR): 3140 ± 450 nM

O[C@@H]1[C@H](O)[C@@H]2C[C@@H]2[C@H]1n1cnc2c(NC3CC3)nc(Cl)nc21 [Compound 108, (1R,2R,3S,4R,5S)-4-(2-Chloro-6-(cyclopropylamino)-9H-purin-9-yl)bicyclo[3.1.0]hexane-2,3-diol]
inhibition at 10 µM (hA1AR [1]): 79 ± 18.8% | Ki (hA1AR [2]): 210 ± 30 nM | Ki (hA3AR): 12.1 ± 3.4 nM | Ki (hA2AAR): 3700 ± 340 nM

O[C@@H]1[C@H](O)[C@@H]2C[C@@H]2[C@H]1n1cnc2c(NC3CCC3)nc(Cl)nc21 [Compound 109, (1R,2R,3S,4R,5S)-4-(2-Chloro-6-(cyclobutylamino)-9H-purin-9-yl)bicyclo[3.1.0]hexane-2,3-diol]
Ki (hA1AR [2]): 51.6 ± 12.6 nM | Ki (hA3AR): 5.9 ± 0.5 nM | Ki (hA2AAR): 3020 ± 90 nM

O[C@@H]1[C@H](O)[C@@H]2C[C@@H]2[C@H]1n1cnc2c(NC3CCCCC3)nc(Cl)nc21 [Compound 110, (1R,2R,3S,4R,5S)-4-(2-Chloro-6-(cyclohexylamino)-9H-purin-9-yl)bicyclo[3.1.0]hexane-2,3-diol]
inhibition at 10 µM (hA1AR [1]): 38 ± 17.6% | Ki (hA1AR [2]): 140 ± 10 nM | Ki (hA3AR): 500 ± 120 nM | Ki (hA2AAR): 2720 ± 450 nM

O[C@@H]1[C@H](O)[C@@H]2C[C@@H]2[C@H]1n1cnc2c(NC3CCCCCC3)nc(Cl)nc21 [Compound 111, (1R,2R,3S,4R,5S)-4-(2-Chloro-6-(cycloheptylamino)-9H-purin-9-yl)bicyclo[3.1.0]hexane-2,3-diol]
inhibition at 10 µM (hA1AR [1]): 48.1 ± 10.2% | Ki (hA1AR [2]): 230 ± 30 nM | Ki (hA3AR): 560 ± 90 nM | Ki (hA2AAR): 3930 ± 520 nM

O[C@@H]1[C@H](O)[C@@H]2C[C@@H]2[C@H]1n1cnc2c(NC3CCCCCCC3)nc(Cl)nc21 [Compound 112, (1R,2R,3S,4R,5S)-4-(2-Chloro-6-(cyclooctylamino)-9H-purin-9-yl)bicyclo[3.1.0]hexane-2,3-diol]
inhibition at 10 µM (hA1AR [1]): 40.1 ± 9% | Ki (hA1AR [2]): 760 ± 110 nM | Ki (hA3AR): 1530 ± 60 nM

CCNc1nc(Cl)nc2c1ncn2[C@H]1[C@H](O)[C@H](O)[C@@H]2C[C@@H]21 [Compound 115, (1R,2R,3S,4R,5S)-4-(2-Chloro-6-(ethylamino)-9H-purin-9-yl)bicyclo[3.1.0]hexane-2,3-diol]
Ki (hA1AR [2]): 930 ± 110 nM | Ki (hA3AR): 6.6 ± 1.6 nM | (% inhibition) A2A (hA2AAR): (11%)

O[C@@H]1[C@H](O)[C@@H]2C[C@@H]2[C@H]1n1cnc2c(NCCCF)nc(Cl)nc21 [Compound 116, (1R,2R,3S,4R,5S)-4-(2-Chloro-6-(3-fluoropropylamino)-9H-purin-9-yl)bicyclo[3.1.0]hexane-2,3-diol]
inhibition at 10 µM (hA1AR [1]): 23.2 ± 2.6% | Ki (hA1AR [2]): 72.7 ± 28 nM | Ki (hA3AR): 32.4 ± 6.7 nM

CC(C)Nc1nc(Cl)nc2c1ncn2[C@H]1[C@H](O)[C@H](O)[C@@H]2C[C@@H]21 [Compound 117, (1R,2R,3S,4R,5S)-4-(2-Chloro-6-(isopropylamino)-9H-purin-9-yl)bicyclo[3.1.0]hexane-2,3-diol]
inhibition at 10 µM (hA1AR [1]): 50.5 ± 6.4% | Ki (hA1AR [2]): 72.2 ± 16.4 nM | Ki (hA3AR): 12 ± 1 nM | (% inhibition) A2A (hA2AAR): (39%)

CCC(CC)Nc1nc(Cl)nc2c1ncn2[C@H]1[C@H](O)[C@H](O)[C@@H]2C[C@@H]21 [Compound 118, (1R,2R,3S,4R,5S)-4-(2-Chloro-6-(pentan-3-ylamino)-9H-purin-9-yl)bicyclo[3.1.0]hexane-2,3-diol]
inhibition at 10 µM (hA1AR [1]): 28.6 ± 3.8% | Ki (hA1AR [2]): 78.8 ± 15.6 nM | Ki (hA3AR): 52 ± 14 nM | Ki (hA2AAR): 3700 ± 300 nM

O[C@@H]1[C@H](O)[C@@H]2C[C@@H]2[C@H]1n1cnc2c(NCC3CC3)nc(Cl)nc21 [Compound 119, (1R,2R,3S,4R,5S)-4-(2-Chloro-6-(cyclopropylmethylamino)-9H-purin-9-yl)bicyclo[3.1.0]hexane-2,3-diol]
inhibition at 10 µM (hA1AR [1]): 81 ± 21.1% | Ki (hA1AR [2]): 68.4 ± 8.9 nM | Ki (hA3AR): 8.9 ± 1.9 nM | Ki (hA2AAR): 4410 ± 1090 nM

CC(Nc1nc(Cl)nc2c1ncn2[C@H]1[C@H](O)[C@H](O)[C@@H]2C[C@@H]21)C1CC1 (stereo partly drawn) [Compound 120, (1R,2R,3S,4R,5S)-4-(2-Chloro-6-(1-cyclopropylethylamino)-9H-purin-9-yl)bicyclo[3.1.0]hexane-2,3-diol]
Ki (hA1AR [2]): 86.8 ± 23.7 nM | Ki (hA3AR): 110 ± 17 nM | (% inhibition) A2A (hA2AAR): (41%)

O[C@@H]1[C@H](O)[C@@H]2C[C@@H]2[C@H]1n1cnc2c(NCc3ccccc3F)nc(Cl)nc21 [Compound 122, (1R,2R,3S,4R,5S)-4-(2-Chloro-6-(2-fluorobenzylamino)-9H-purin-9-yl)bicyclo[3.1.0]hexane-2,3-diol]
Ki (hA1AR [2]): 4790 ± 670 nM | Ki (hA3AR): 41.5 ± 1 nM

O[C@@H]1[C@H](O)[C@@H]2C[C@@H]2[C@H]1n1cnc2c(NCc3ccccc3OCCF)nc(Cl)nc21 [Compound 123, (1R,2R,3S,4R,5S)-4-(2-chloro-6-(2-(2-fluoroethoxy)benzylamino)-9H-purin-9-yl)bicyclo[3.1.0]hexane-2,3-diol]
Ki (hA3AR): 10.3 ± 1.5 nM

O[C@@H]1[C@H](O)[C@@H]2C[C@@H]2[C@H]1n1cnc2c(NCc3cccc(OCCF)c3)nc(Cl)nc21 [Compound 124, (1R,2R,3S,4R,5S)-4-(2-chloro-6-(3-(2-fluoroethoxy)benzylamino)-9H-purin-9-yl)bicyclo[3.1.0]hexane-2,3-diol]
inhibition at 10 µM (hA1AR [2]): 34% | Ki (hA3AR): 15.2 ± 3 nM | inhibition at 10 µM (hA2AAR): 32%

O[C@@H]1[C@H](O)[C@@H]2C[C@@H]2[C@H]1n1cnc2c(NCc3cc(F)ccc3F)nc(Cl)nc21 [Compound 125, (1R,2R,3S,4R,5S)-4-(2-chloro-6-(2,5-difluorobenzylamino)-9H-purin-9-yl)bicyclo[3.1.0]hexane-2,3-diol]
Ki (hA1AR [2]): 3580 ± 220 nM | Ki (hA3AR): 114 ± 45 nM | inhibition at 10 µM (hA2AAR): 46%

COc1ccc(F)c(F)c1CNc1nc(Cl)nc2c1ncn2[C@H]1[C@H](O)[C@H](O)[C@@H]2C[C@@H]21 [Compound 126, (1R,2R,3S,4R,5S)-4-(2-chloro-6-(2,3-difluoro-6-methoxybenzylamino)-9H-purin-9-yl)bicyclo[3.1.0]hexane-2,3-diol]
Ki (hA1AR [2]): 1260 ± 240 nM | Ki (hA3AR): 16.5 ± 2.8 nM | inhibition at 10 µM (hA2AAR): 38%

COc1cc(F)c(F)cc1CNc1nc(Cl)nc2c1ncn2[C@H]1[C@H](O)[C@H](O)[C@@H]2C[C@@H]21 [Compound 127, (1R,2R,3S,4R,5S)-4-(2-chloro-6-(4,5-difluoro-2-methoxybenzylamino)-9H-purin-9-yl)bicyclo[3.1.0]hexane-2,3-diol]
inhibition at 10 µM (hA1AR [2]): 41% | Ki (hA3AR): 83.2 ± 35.7 nM | inhibition at 10 µM (hA2AAR): 30%

OCc1cc(F)c(F)cc1CNc1nc(Cl)nc2c1ncn2[C@@]12C[C@H](O)[C@H](O)[C@@H]1C2 [Compound 128]
Ki (hA1AR [2]): 1910 ± 310 nM | Ki (hA3AR): 40.4 ± 13.1 nM | Ki (hA2AAR): 7510 ± 690 nM

O[C@@H]1[C@H](O)[C@@H]2C[C@@H]2[C@H]1n1cnc2c(NCC(C3CC3)C3CC3)nc(Cl)nc21 [Compound 207, (1R,2R,3S,4R,5S)-4-(2-Chloro-6-(2,2-dicyclopropylethylamino)-9H-purin-9-yl)bicyclo[3.1.0]hexane-2,3-diol]
inhibition at 10 µM (hA1AR [1]): -9 ± 4.1% | Ki (hA1AR [2]): 780 ± 100 nM | Ki (hA3AR): 670 ± 10 nM

O[C@@H]1[C@H](O)[C@@H]2C[C@@H]2[C@H]1n1cnc2c(NC(C3CCCC3)C3CCCC3)nc(Cl)nc21 [Compound 211, (1R,2R,3S,4R,55)-4-(2-Chloro-6-(dicyclopentylmethylamino)-9H-purin-9-yl)bicyclo[3.1.0]hexane-2,3-diol]
(% inhibition) A1 (hA1AR [2]): (34 ± 3%) | (% inhibition) A3 (hA3AR; percent inhibition of radioligand binding at 10 μM): (48 ± 2%) | (% inhibition) A2A (hA2AAR): (13 ± 3%)

CC[C@@H](Nc1nc(Cl)nc2c1ncn2[C@H]1[C@H](O)[C@H](O)[C@@H]2C[C@@H]21)C1CC1 [Compound 212, (1R,2R,3S,4R,5S)-4-(2-Chloro-6-((R)-1-cyclopropylpropylamino)-9H-purin-9-yl)bicyclo[3.1.0]hexane-2,3-diol]
inhibition at 10 µM (hA1AR [1]): 37.3 ± 4.3% | Ki (hA1AR [2]): 68.1 ± 5 nM | Ki (hA3AR): 150 ± 2 nM | Ki (hA2AAR): 3610 ± 500 nM

O[C@@H]1[C@H](O)[C@@H]2C[C@@H]2[C@H]1n1cnc2c(N[C@@H](c3ccccc3)C3CC3)nc(Cl)nc21 [Compound 220, (1R,2R,3S,4R,5S)-4-(2-Chloro-6-((R)-cyclopropylphenylmethylamino)-9H-purin-9-yl)bicyclo[3.1.0]hexane-2,3-diol]
% Inhibition, cyclic AMP A1 (hA1AR [1]): −7.4 ± 6.0% | Ki (hA1AR [2]): 3000 ± 440 nM | (% inhibition) A2A (hA2AAR): (46 ± 4%)

O[C@@H]1[C@H](O)[C@@H]2C[C@@H]2[C@H]1n1cnc2c(N[C@H](c3ccccc3)C3CC3)nc(Cl)nc21 [Compound 221, (1R,2R,3S,4R,5S)-4-(2-Chloro-6-((S)-cyclopropylphenylmethylamino)-9H-purin-9-yl)bicyclo[3.1.0]hexane-2,3-diol]
% Inhibition, cyclic AMP A1 (hA1AR [1]): −2.4 ± 3.7% | (% inhibition) A1 (hA1AR [2]): (50 ± 5%) | (% inhibition) A2A (hA2AAR): (36 ± 4%)

OC[C@H]1O[C@@H](n2cnc3c(NC4CCCC4)ncnc32)[C@H](O)[C@@H]1O [Compound 235a, N^6-cyclopentyladenosine, reference compound]
% Inhibition, cyclic AMP A1 (hA1AR [1]): 100 ± 2.6%
